In the assay the target is PI3Kβ (Homo sapiens (Human), UniProt P42338). The assay is described as follows: PI3K isoform TR-FRET enzymatic assay (PI3Kβ). The format is biochemical. As to conditions: 2× Km ATP, 30 minutes at 25° C. The essentials:
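IC50 came from four-parameter dose-response fits, normalized between DMSO and 1 μM wortmannin controls. The read-out was TR-FRET (615/665 nm) of PIP3 displacing fluorescent PIP3 from Europium GRP-1 after 10 mM EDTA termination. Compounds were incubated with purified heterodimeric PI3Kβ for 30 min at 25° C.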
(TR-FRET usually uses a lanthanide donor and a delayed reading to cut background.)

Each structure is given as a SMILES string.

This passage reports IC50 results from patent US10214519B2, “Phosphatidylinositol 3-kinase inhibitors” (Gilead Sciences, Inc., priority 2016, dated 2019).

Chain of PI3Kβ (P42338 whole entry, canonical isoform): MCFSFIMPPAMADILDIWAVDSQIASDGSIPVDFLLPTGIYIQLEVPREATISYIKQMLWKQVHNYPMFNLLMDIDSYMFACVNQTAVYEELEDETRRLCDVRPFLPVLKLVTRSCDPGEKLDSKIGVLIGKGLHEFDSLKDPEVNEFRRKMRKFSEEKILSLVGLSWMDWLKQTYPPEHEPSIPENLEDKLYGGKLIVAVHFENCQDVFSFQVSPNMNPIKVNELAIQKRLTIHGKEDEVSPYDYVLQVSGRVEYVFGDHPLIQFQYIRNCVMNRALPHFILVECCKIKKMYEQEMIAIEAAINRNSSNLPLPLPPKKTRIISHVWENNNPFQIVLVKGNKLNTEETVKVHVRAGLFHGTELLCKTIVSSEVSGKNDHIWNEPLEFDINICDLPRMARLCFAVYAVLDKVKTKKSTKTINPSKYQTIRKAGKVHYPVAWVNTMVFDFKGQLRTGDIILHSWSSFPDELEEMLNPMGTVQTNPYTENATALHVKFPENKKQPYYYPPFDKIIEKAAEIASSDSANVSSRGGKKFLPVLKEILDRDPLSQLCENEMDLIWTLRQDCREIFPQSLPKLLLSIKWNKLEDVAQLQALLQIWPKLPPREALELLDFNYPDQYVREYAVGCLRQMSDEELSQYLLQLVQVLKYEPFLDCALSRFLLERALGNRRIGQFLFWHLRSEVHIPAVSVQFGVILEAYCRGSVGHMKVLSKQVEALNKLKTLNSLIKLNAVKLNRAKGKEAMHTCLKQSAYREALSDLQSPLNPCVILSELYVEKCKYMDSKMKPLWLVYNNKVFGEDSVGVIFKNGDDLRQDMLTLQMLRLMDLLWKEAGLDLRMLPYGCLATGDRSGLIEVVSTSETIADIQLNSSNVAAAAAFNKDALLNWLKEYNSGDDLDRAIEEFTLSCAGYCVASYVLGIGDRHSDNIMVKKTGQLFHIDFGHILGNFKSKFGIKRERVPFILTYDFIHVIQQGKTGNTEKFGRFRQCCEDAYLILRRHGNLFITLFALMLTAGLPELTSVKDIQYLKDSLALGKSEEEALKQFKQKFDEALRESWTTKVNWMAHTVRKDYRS
Chain of PI3Kβ (P27986 whole entry partner, canonical isoform): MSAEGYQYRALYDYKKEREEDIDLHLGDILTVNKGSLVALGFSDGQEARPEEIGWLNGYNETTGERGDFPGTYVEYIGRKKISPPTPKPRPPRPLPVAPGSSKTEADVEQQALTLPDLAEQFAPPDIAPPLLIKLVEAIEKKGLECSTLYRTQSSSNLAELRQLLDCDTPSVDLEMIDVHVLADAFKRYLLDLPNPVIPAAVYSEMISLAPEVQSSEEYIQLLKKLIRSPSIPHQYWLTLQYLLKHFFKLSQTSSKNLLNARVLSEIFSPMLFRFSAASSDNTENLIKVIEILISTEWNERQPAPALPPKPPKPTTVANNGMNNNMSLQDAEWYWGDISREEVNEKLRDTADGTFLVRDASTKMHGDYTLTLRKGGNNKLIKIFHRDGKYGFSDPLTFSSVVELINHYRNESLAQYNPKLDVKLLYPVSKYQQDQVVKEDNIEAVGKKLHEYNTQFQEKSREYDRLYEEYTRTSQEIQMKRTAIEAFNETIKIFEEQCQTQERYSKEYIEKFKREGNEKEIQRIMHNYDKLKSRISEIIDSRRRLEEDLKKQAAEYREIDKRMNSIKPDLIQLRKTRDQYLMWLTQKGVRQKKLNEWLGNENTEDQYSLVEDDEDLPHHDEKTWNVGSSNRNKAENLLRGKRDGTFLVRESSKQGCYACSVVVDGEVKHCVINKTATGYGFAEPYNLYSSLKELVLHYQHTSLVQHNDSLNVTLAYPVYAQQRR

Regarding `Cc1csc(-c2cc(N3CCOCC3)cc3c2nc(C2CC2)n3-c2ccnc3c(Cl)cccc23)n1` [Example 234, 4-[3-(8-chloroquinolin-4-yl)-2-cyclopropyl-7-(4-methyl-1,3-thiazol-2-yl)benzimidazol-5-yl]morpholine], the midpoint of inhibition, the IC50, lay at 100 nM.

Turning to `Cc1nnc(-c2cc(N3CCOCC3)cc3c2ncn3-c2cc(-c3cc[nH]n3)nc3ccccc23)[nH]1` [Example 382, 4-(1-(2-(1H-pyrazol-3-yl)quinolin-4-yl)-4-(5-methyl-4H-1,2,4-triazol-3-yl)-1H-benzo[d]imidazol-6-yl)morpholine], the IC50 (usually the midpoint of a concentration-inhibition curve) is 130 nM. The result for `Cc1nc2c(-c3cnc(Cl)[nH]3)cc(N3CCOCC3)cc2n1-c1ccnc2c(Cl)c(F)ccc12` [Example 294, 4-[3-(8-chloro-7-fluoroquinolin-4-yl)-7-(2-chloro-1H-imidazol-5-yl)-2-methylbenzimidazol-5-yl]morpholine] reads 6 nM; that for `Cc1csc(-c2cc(N3CCOCC3)cc3c2nc(C2CC2)n3-c2ccnc3c(Cl)ccc(F)c23)n1` [Example 243, 4-[3-(8-chloro-5-fluoroquinolin-4-yl)-2-cyclopropyl-7-(4-methyl-1,3-thiazol-2-yl)benzimidazol-5-yl]morpholine], 26 nM; that for `Cc1nc2c(-c3nnn[nH]3)cc(N3CCOCC3)cc2n1-c1ccnc2c(Cl)cccc12` [Example 161], 23 nM. The result for `Cc1nc2c(-c3cnc(Cl)[nH]3)cc(N3CCOCC3)cc2n1-c1ccnc2c(F)ccc(F)c12` (atropisomer, axis not shown) [Compound 373, 4-(4-(2-chloro-1H-imidazol-5-yl)-1-(5,8-difluoroquinolin-4-yl)-2-methyl-1H-benzo[d]imidazol-6-yl)morpholine] reads 1000 nM. `Cc1nc2c(-c3cnc(Cl)[nH]3)cc(N3CCOCC3)cc2n1-c1ccnc2c(Cl)cc(F)cc12` [Example 289, 4-[3-(8-chloro-6-fluoroquinolin-4-yl)-7-(2-chloro-1H-imidazol-5-yl)-2-methylbenzimidazol-5-yl]morpholine] came in with an IC50 of 24 nM.

For `Cc1nnc(-c2cc(N3CCOCC3)cc3c2ncn3-c2ccnc3c(F)ccc(F)c23)[nH]1` [Example 44, 4-(1-(5,8-difluoroquinolin-4-yl)-4-(5-methyl-4H-1,2,4-triazol-3-yl)-1H-benzo[d]imidazol-6-yl)morpholine], the midpoint of inhibition, the IC50, lay at 19 nM. The result for `c1ccc2c(-n3cnc4c(-c5nnc[nH]5)cc(N5CCOCC5)cc43)cc(N3CCNCC3)nc2c1` [Example 379, 4-(1-(2-(piperazin-1-yl)quinolin-4-yl)-4-(4H-1,2,4-triazol-3-yl)-1H-benzo[d]imidazol-6-yl)morpholine] reads 8 nM; that for `CCc1nc2c(-c3ncco3)cc(N3CCOCC3)cc2n1-c1ccnc2c(Cl)c(F)ccc12` [Example 218, 4-[3-(8-chloro-7-fluoroquinolin-4-yl)-2-ethyl-7-(1,3-oxazol-2-yl)benzimidazol-5-yl]morpholine], 11 nM. The result for `CCc1nc2c(-c3nc(C)cs3)cc(N3CCOCC3)cc2n1-c1ccnc2c(F)cccc12` [Example 232, 4-[2-ethyl-3-(8-fluoroquinolin-4-yl)-7-(4-methyl-1,3-thiazol-2-yl)benzimidazol-5-yl]morpholine] reads 56 nM; that for `CCCc1nc2c(-c3nnc[nH]3)cc(N3CCOCC3)cc2n1-c1ccnc2c(F)cccc12` (atropisomer, axis not shown) [Compound 355, 4-[3-(8-fluoroquinolin-4-yl)-2-propyl-7-(4H-1,2,4-triazol-3-yl)benzimidazol-5-yl]morpholine], 2500 nM; that for `CC1(c2nc3c(-c4nnc[nH]4)cc(N4CCOCC4)cc3n2-c2ccnc3c(Cl)cccc23)CC1` [Example 4, 4-(1-(8-chloroquinolin-4-yl)-2-(1-methylcyclopropyl)-4-(4H-1,2,4-triazol-3-yl)-1H-benzo[d]imidazol-6-yl)morpholine], 28 nM.
